Test results as given in paper PMC12040169 (PLOS Biology, 2025).

assay: in vitro; details: human, hela cells, % viability

| SMILES | viability at 28.5 h, 10 µM [%] |
| --- | --- |
| COc1ccc(-c2cnc(N)c(-c3ccc(F)c(Cl)c3)n2)cn1 [CBK063966] | 111 |
| CCOC(=O)c1cnn2c(O)cc(CN3CCc4sccc4C3)nc12 [CBK305680] | 106 |
| Cc1cc(C)nc(N2CCC(CC(=O)NCC(C)N3CCCCCC3)CC2)n1 (stereo not shown) [CBK286029] | 94.9 |
| Nn1c(SCC(=O)Nc2cccc3ccccc23)nnc1-c1ccccc1Cl [CBK266080] | 97.7 |
| O=C(CCS(=O)(=O)Cc1ccccc1)n1nnc2ccccc21 [CBK268324] | 99.4 |
| O=C(O)c1cc(-c2cc(Cl)ccc2Cl)nc2ccccc12 [CBK265391] | 96.1 |
| COc1ccc(C(=O)C2=C(O)C(=O)N(CCN3CCNCC3)C2c2ccccc2F)cc1 (stereo not shown) [CBK264666] | 99.4 |
| CCn1cc(CN(CC(C)C)C(=O)c2ccccc2C#N)cn1 [CBK306729] | 102 |
| O[C@H]1[C@H](NCC2CC2)[C@H]2CO[C@H](O2)[C@@H]1N1CCOCC1 [CBK288819] | 86.4 |
| CC(C)(C)c1cc(CNCCS(=O)(=O)O)c(O)c(C(C)(C)C)c1 [CBK261098] | 107 |
| Cc1c(C#N)sc(-c2nc[nH]n2)c1C [CBK005952] | 77.6 |
| CC1(C)CC(O[Si](C)(C)OC2CC(C)(C)NC(C)(C)C2)CC(C)(C)N1 [CBK261942] | 99.3 |
| Cc1c(C(=O)N2CCC[C@H]2[C@H](O)c2nccs2)oc2ccccc12 [CBK284281] | 100 |
| OC(COCc1ccccc1)CN1CCN(Cc2ccccc2)CC1 (stereo not shown) [CBK278297C] | 107 |
| CC(C)(C)c1cc(C(=O)O)c(CN2CCOCC2)o1 [CBK264052] | 88.7 |
| COc1ccc(-c2cc(C(=O)Nc3nc4c(OC)cccc4s3)cnc2-c2ccccc2)cn1 [CBK036681] | 105 |
| Cc1ccccc1Sc1ncccc1C(F)(F)F [CBK115231] | 104 |
| Cc1ccc(C(=O)NCc2ccc(-c3n[nH]cc3C(=O)N(C)Cc3ccccc3)cc2)cc1 [CBK285598] | 100 |
| O=C(NCc1ccc(OC2CCNCC2)cc1)c1cccs1 [CBK036353T] | 89.8 |
| C=CCOC(=O)N1CCC(C(=O)N(C)C(c2cccc(OC)c2)c2ccccn2)CC1 (stereo not shown) [CBK060244] | 91.5 |
| Cc1cc(CNC(=O)C2=CC(=O)CC(C)(C)O2)no1 [CBK153281] | 104 |
| Cc1nc2c(c(CCC(=O)O)n1)CCCC2 [CBK023157] | 98.4 |

| SMILES | viability at 28.5 h, 10 µM [%] |
| --- | --- |
| COCCn1c(=O)n(Cc2ccccc2)c2cccnc21 [CBK283964] | 91 |
| C#CC1(OC(=O)CC)CCN(CCCC(=O)c2ccc(F)cc2)CC1 [CBK025277C] | 108 |
| O=c1[nH]c2cc(NCCO)c([N+](=O)[O-])cc2[nH]1 [CBK009794] | 93.2 |
| c1ccc(-c2nc3ccc(Cc4ccc5nc(-c6ccccn6)c(-c6ccccn6)nc5c4)cc3nc2-c2ccccn2)nc1 [CBK261975] | 101 |
| COC(=O)c1c(-c2ccncc2)csc1NC(=O)Cc1ccc([N+](=O)[O-])cc1 [CBK268119] | 90.1 |
| COc1ccc2c(c1)C1(CC(=O)N(CCc3scnc3C)C1=O)C(=O)N2C (stereo not shown) [CBK075213] | 91.6 |
| Cc1nn(C)c(C)c1S(=O)(=O)n1ccn(-c2ccc(N(C)C)cc2)c1=O [CBK106610] | 93 |
| CCCC1COC(c2ccc(C#N)cc2)OC1 (stereo not shown) [CBK033941] | 94.5 |
| Cc1cc(NC(=O)CC2CCCCC2)nc2c1c(=O)oc1ccccc12 [CBK291151] | 90.6 |
| O=C(CSc1ccccn1)Nc1ccc(CN2CCOCC2)cc1 [CBK306072] | 91 |
| CC1(Cc2ccn[nH]2)SCCCS1 [CBK019308C] | 109 |
| CCOC(=O)c1sc(NC(=O)CCNC(=O)c2ccccc2C(=O)O)c(C#N)c1C [CBK295152] | 96.1 |
| N#Cc1ccncc1NCc1ccccc1CN1CCCC1CO (stereo not shown) [CBK304021] | 85 |
| CCc1c(C)nc2ccccc2c1SCCOC(=O)Nc1cccc([N+](=O)[O-])c1 [CBK155545T] | 106 |
| COc1ccccc1-c1ccc(C(=O)N(C)CCN(C)C)c(NCC2CC2)n1 [CBK106269] | 96.3 |
| Nc1nc2cccnc2cc1-c1ccsc1 [CBK081214] | 85.8 |
| CCCCNC(=O)c1c(N)n(-c2ccc(C(=O)O)cc2)c2nc3ccccc3nc12 [CBK300500] | 82.7 |
| Cc1cccn2c(=O)cc(CN3CCC(CNc4ccccn4)C3)nc12 (stereo not shown) [CBK306123] | 103 |
| CCCC(=O)NC(c1ccccn1)C1CCC(CNC(C)=O)CC1 (stereo not shown) [CBK283080] | 102 |
| O=C(c1ccco1)c1cnc2ccccn2c1=O [CBK010791] | 109 |
| Cc1cc(C(=O)N2CCC(Cc3ccccc3-c3ccccc3)(C(=O)N(C)C)CC2)cs1 [CBK285676] | 116 |
| Oc1cccc(-c2cn3ccnc3c(NC3CC3)n2)c1 [CBK038076] | 101 |

| SMILES | viability at 28.5 h, 10 µM [%] |
| --- | --- |
| Cn1c(=O)c2c(nc(N3CCN(c4cccc(Cl)c4)CC3)n2CC(=O)O)n(C)c1=O [CBK286803] | 87.7 |
| Cc1cccc(-c2ccc3c(c2)C(=O)N2CC[C@H](NC(=O)c4cnccn4)[C@H]2C(=O)N3)c1C [CBK289348] | 87.2 |
| CN(C)S(=O)(=O)N(CC(=O)N1CCN(Cc2ccc3c(c2)OCO3)CC1)c1ccccc1 [CBK267994] | 102 |
| COc1cc(/C=N/Nc2nc(-c3ccccc3)cc(-c3ccc(OC)c(OC)c3)n2)ccc1O [CBK262841] | 52.2 |
| CCc1nc2ccc(C(=O)NCCN(C)C)cn2c1N(CC)CC(=O)N(C)C [CBK146762] | 89.6 |
| Cc1ccc(-c2ccc(CCC(=O)O)n2NC(=O)c2ccc([N+](=O)[O-])cc2)cc1 [CBK264776] | 109 |
| O=C(CCCc1ccccc1)Nc1ccc(F)cc1[N+](=O)[O-] [CBK265446] | 99.9 |
| COc1ccc(NS(=O)(=O)c2ccc(C)cc2)cn1 [CBK010484] | 85.8 |
| COc1cc2c(cc1OC)C1=NNC(=O)C1=NC(C)(C)C2 [CBK288353] | 22.3 |
| Cc1ccc(S(=O)(=O)Nc2cccc(C(=O)N3CCN(C)CC3)c2)cc1[N+](=O)[O-] [CBK038976] | 89.5 |
| Cc1ccc2nc(Nc3nc(C)cc(C)n3)[nH]c2c1 [CBK263634] | 97.9 |
| O=C(c1n[nH]c2ccccc12)N1CCc2ccccc21 [CBK200282] | 90.6 |
| CC(C)(C)C1=CC2=NC3(CCOCC3)[C@@H]3C[C@@H](O)[C@@H](O)[C@@H]3N2O1 [CBK303244] | 90.1 |
| COc1ccc(C(=O)Nc2c(C)nn(C)c2N2CCNCC2)cc1 [CBK050306T] | 94.5 |
| COc1cc(CN2CCC(N3CCCCC3)CC2)c([N+](=O)[O-])cc1OC [CBK261858] | 93.3 |
| Cn1cc(C(=O)NC(Cc2ccsc2)c2cccnc2)cn1 (stereo not shown) [CBK285118] | 99.9 |
| O=C1C=C([C@@H]2O[C@H](CO)[C@H](O)C2O)C(=O)N1 (stereo partly shown) [CBK201255] | 101 |
| Cc1cc(C)c(C)c(S(=O)(=O)NCc2ccc(C(=O)Nc3ccncc3)cc2)c1C [CBK267193] | 90.5 |
| O=C(CNC(=O)c1ccc2c(c1)OCCO2)N/N=C/c1cccs1 [CBK261987] | 86.5 |
| Cc1c(NCc2ccccn2)cccc1C(=O)O [CBK269651] | 86.9 |
| S=C1NC2c3ccccc3OC3(CCCCC23)N1 (stereo not shown) [CBK288506] | 102 |
| Cc1ccc(Oc2nnnn2-c2ccccc2)c(Br)c1 [CBK002827] | 106 |

| SMILES | viability at 28.5 h, 10 µM [%] |
| --- | --- |
| O=C1COc2ccc(S(=O)(=O)NCCc3ccccc3)cc2N1 [CBK270162] | 114 |
| COC(=O)c1sc2cc(NC(=S)NCc3ccc(S(N)(=O)=O)cc3)ccc2c1Cl [CBK267094] | 81.7 |
| CC(=O)Nc1ccc(C(=O)Nc2ccc(S(=O)(=O)N3CCOCC3)cc2)cc1 [CBK264763] | 95.1 |
| CC1(c2ccccc2)CC(C)(C)N(C(=O)CSc2nc3ccccc3o2)c2ccccc21 (stereo not shown) [CBK262466] | 104 |
| O=C(Nc1cc(N2CCNCC2)ncn1)c1ccccc1 [CBK004215T] | 94.3 |
| COc1ccccc1-c1ncc(OCCN2CCOCC2)nc1N [CBK145072] | 113 |
| Nc1nc2c(nc(O)n2[C@@H]2O[C@H](CO)[C@H](O)C2O)c(=O)[nH]1 (stereo partly shown) [CBK201297] | 88.5 |
| Cc1ccc(/C=C/C(=O)O)cc1S(=O)(=O)NCC1CCCO1 (stereo not shown) [CBK287267] | 82.5 |
| CCOC(=O)Nc1ccc2ccccc2n1 [CBK028207] | 87.3 |
| CNCC(=O)N1CCC2(CCCC[C@H]3CN(C(C)=O)CC[C@H]3NC(=O)CNC2=O)CC1 [CBK292181] | 79.3 |
| c1ccc(Cn2c(-c3ccccc3)c(-c3ccccc3)c3c2ncn2nc(-c4cccnc4)nc32)cc1 [CBK265359] | 109 |
| CC(C)NC(=O)NC[C@H]1C[C@@H]2CC[N@]1C[C@@H]2CN1CCN(c2ccccn2)CC1 [CBK289112] | 105 |
| Cc1cc(NC(=O)c2nn(-c3ncccn3)c3ccccc23)n(C)n1 [CBK048505] | 92.3 |
| Cc1nc(CNc2ccc3nnc(C(F)(F)F)n3n2)cs1 [CBK305674] | 91.6 |
| CCC(Cc1c[nH]c2ccccc12)NC(=N)N (stereo not shown) [CBK010430] | 102 |
| CN1CCC(C(=O)NC(=O)NC2CCCCC2)CC1 [CBK034825] | 112 |
| O=C(c1cc(F)cc(F)c1)N1CC[C@@H](c2ccccc2)[C@H](O)C1 [CBK283715] | 79.1 |
| Cc1cccc(NC(=O)CSCc2ccc(Cl)s2)n1 [CBK297895] | 90.4 |
| CCc1cc(=O)oc2cc(OC(=O)c3ccco3)ccc12 [CBK264657] | 84.8 |

same assay, conditions: human, hela cells, % viability, bulk resorufin, single well

| SMILES | viability at 28.5 h, 10 µM [%] |
| --- | --- |
| O=C1NC(=O)N(c2ccc(Cl)cc2)C(=O)/C1=C\NC(CO)(CO)CO [CBK264421] | 99.7 |
| CCOC(=O)N1CCC2(CC1)Oc1ccc(-c3ccccc3)cc1O2 [CBK085500] | 101 |
| c1ccc2cc(-c3ccc4c(c3)COC3(CCNCC3)O4)ccc2c1 [CBK060949] | 88 |
